In the supplement of paper PMC10307832:

These cell lines were tested with Cc1cnc(CNC(=O)c2c(=O)c3ccc(N4CCCN(C)CC4)nc3n3c2sc2ccccc23)cn1 [CX-5461] + Nc1nc2[nH]cc(CCc3ccc(C(=O)N[C@@H](CCC(=O)O)C(=O)O)cc3)c2c(=O)[nH]1 [Pemetrexed] (partner 0.2 µM) (assay: relative viability (nuclei count vs DMSO), 5 days (fraction); higher = more cells survive). Conditions: first compound 0.01 µM.
In short: (§1)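 Lung cancer cell lines, seeded in 1536-well plates, were treated the following day by pin tool with a single drug or with five library-drug doses (not always all listed) in √10 steps on top of a fixed anchor-drug dose. Cells were fixed and nuclei stained in one step after 5 days, and nuclei were counted. Relative viability is the nuclei count for treated wells divided by that for vehicle wells, reported as medians of duplicate plates.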

Cell Line | relative viability
NCI-H522 | 1.15
NCI-H1650 | 0.377
NCI-H1993 | 0.529
SK-LU-1 | 1.06
NCI-H838 | 0.251
LCLC-103H | 0.426
NCI-H520 | 0.719
NCI-H2126 | 0.697
EMC-BAC-2 | 0.435
NCI-H2085 | 1.03
HCC-366 | 0.196
NCI-H1666 | 0.854
NCI-H596 | 0.47
NCI-H1395 | 0.835
NCI-H2087 | 0.689
NCI-H2342 | 0.764
LK-2 | 0.213
NCI-H358 | 0.159
HCC-44 | 0.56
SW 900 | 0.437
NCI-H1648 | 0.631
NCI-H1793 | 1.17
NCI-H1792 | 0.897
NCI-H1944 | 0.561
NCI-H1563 | 0.81
NCI-H2170 | 0.252
SK-MES-1 | 0.95

Same assay, conditions: first compound 0.03162 µM

Cell Line | relative viability
NCI-H522 | 1.1
NCI-H1650 | 0.477
NCI-H1993 | 0.67
SK-LU-1 | 1.12
NCI-H838 | 0.248
LCLC-103H | 0.482
NCI-H520 | 0.725
NCI-H2126 | 0.713
EMC-BAC-2 | 0.439
NCI-H2085 | 0.907
HCC-366 | 0.172
NCI-H1666 | 0.848
NCI-H596 | 0.45
NCI-H1395 | 0.846
NCI-H2087 | 0.657
NCI-H2342 | 0.815
LK-2 | 0.258
NCI-H358 | 0.157
HCC-44 | 0.694
SW 900 | 0.52
NCI-H1648 | 0.847
NCI-H1793 | 1.21
NCI-H1792 | 0.929
NCI-H1944 | 0.653
NCI-H1563 | 0.747
NCI-H2170 | 0.257
SK-MES-1 | 0.988

Same assay, conditions: first compound 0.1 µM

Cell Line | relative viability
NCI-H522 | 0.832
NCI-H1650 | 0.336
NCI-H1993 | 0.582
SK-LU-1 | 0.852
NCI-H838 | 0.244
LCLC-103H | 0.46
NCI-H520 | 0.708
NCI-H2126 | 0.687
EMC-BAC-2 | 0.395
NCI-H2085 | 0.88
HCC-366 | 0.179
NCI-H1666 | 1.01
NCI-H596 | 0.523
NCI-H1395 | 0.816
NCI-H2087 | 0.684
NCI-H2342 | 0.751
LK-2 | 0.299
NCI-H358 | 0.165
HCC-44 | 0.644
NCI-H1648 | 0.686
NCI-H1793 | 0.92
NCI-H1792 | 0.964
NCI-H1944 | 0.531
NCI-H1563 | 0.908
NCI-H2170 | 0.267
SK-MES-1 | 0.888

Same assay, conditions: first compound 0.3162 µM

Cell Line | relative viability
NCI-H1650 | 0.35
NCI-H1993 | 0.587
SK-LU-1 | 0.965
NCI-H838 | 0.232
LCLC-103H | 0.401
NCI-H520 | 0.608
NCI-H2126 | 0.672
EMC-BAC-2 | 0.443
NCI-H2085 | 0.989
HCC-366 | 0.197
NCI-H1666 | 0.828
NCI-H596 | 0.504
NCI-H1395 | 0.437
NCI-H2087 | 0.712
NCI-H2342 | 0.744
NCI-H358 | 0.173
HCC-44 | 0.649
SW 900 | 0.521
NCI-H1648 | 0.832
NCI-H1793 | 0.706
NCI-H1792 | 1.02
NCI-H1944 | 0.451
NCI-H1563 | 0.687
NCI-H2170 | 0.26
SK-MES-1 | 0.955

Same assay, conditions: first compound 1 µM

Cell Line | relative viability
NCI-H522 | 0.918
NCI-H1650 | 0.241
NCI-H1993 | 0.625
SK-LU-1 | 0.651
NCI-H838 | 0.241
LCLC-103H | 0.4
NCI-H520 | 0.484
NCI-H2126 | 0.634
EMC-BAC-2 | 0.399
NCI-H2085 | 0.799
HCC-366 | 0.149
NCI-H1666 | 0.769
NCI-H596 | 0.48
NCI-H1395 | 0.488
NCI-H2087 | 0.654
NCI-H2342 | 0.745
LK-2 | 0.236
NCI-H358 | 0.156
HCC-44 | 0.55
SW 900 | 0.441
NCI-H1648 | 0.494
NCI-H1793 | 0.802
NCI-H1792 | 0.296
NCI-H1944 | 0.271
NCI-H1563 | 0.651
NCI-H2170 | 0.272
SK-MES-1 | 0.546

What follows are cell lines tested with O=C(Nc1cc(C(F)(F)F)cc(C(F)(F)F)c1)c1cc(Cl)ccc1O [IMD-0354] + CC(C)C[C@H](NC(=O)[C@H](Cc1ccccc1)NC(=O)c1cnccn1)B(O)O [Bortezomib] (partner 0.002 µM) in the same assay as above. Conditions: first compound 0.04 µM.
In short: as §1

Cell Line | relative viability
NCI-H727 | 0.841
NCI-H1650 | 0.205
EBC-1 | 0.54
NCI-H1703 | 0.234
NCI-H1993 | 1.03
SK-LU-1 | 1.17
NCI-H838 | 0.858
LCLC-103H | 1.14
NCI-H520 | 0.681
NCI-H2126 | 1.17
EMC-BAC-2 | 1.17
NCI-H2085 | 1.03
Calu-6 | 1.1
HCC-366 | 1.2
NCI-H1666 | 0.667
NCI-H596 | 0.931
NCI-H2087 | 1.06
IA-LM | 0.866
HCC-44 | 0.913
NCI-H1299 | 0.938
NCI-H1792 | 1.11
NCI-H1563 | 1.01
ABC-1 | 0.35

Same assay, conditions: first compound 0.1265 µM

Cell Line | relative viability
NCI-H727 | 0.923
NCI-H1650 | 0.196
EBC-1 | 0.59
NCI-H1703 | 0.3
NCI-H1993 | 1.28
SK-LU-1 | 1.1
NCI-H838 | 0.744
LCLC-103H | 1.02
NCI-H520 | 0.579
NCI-H2126 | 1.12
EMC-BAC-2 | 1.03
NCI-H2085 | 1.09
Calu-6 | 1.1
HCC-366 | 0.885
NCI-H1666 | 0.804
NCI-H596 | 1.15
NCI-H2087 | 1
IA-LM | 0.977
HCC-44 | 0.918
NCI-H1299 | 0.965
NCI-H1792 | 0.815
NCI-H1563 | 0.927
ABC-1 | 0.332

Same assay, conditions: first compound 0.4 µM

Cell Line | relative viability
NCI-H727 | 0.532
NCI-H1650 | 0.189
EBC-1 | 0.471
NCI-H1703 | 0.352
NCI-H1993 | 0.578
SK-LU-1 | 0.645
NCI-H838 | 0.425
LCLC-103H | 0.939
NCI-H520 | 0.389
NCI-H2126 | 0.89
EMC-BAC-2 | 0.553
NCI-H2085 | 0.757
Calu-6 | 0.673
HCC-366 | 0.281
NCI-H1666 | 0.641
NCI-H596 | 0.846
NCI-H2087 | 0.272
IA-LM | 0.76
HCC-44 | 0.35
NCI-H1299 | 0.841
NCI-H1792 | 0.688
NCI-H1563 | 0.768
ABC-1 | 0.343

Same assay, conditions: first compound 1.265 µM

Cell Line | relative viability
NCI-H727 | 0.38
NCI-H1650 | 0.166
EBC-1 | 0.184
NCI-H1703 | 0.168
NCI-H1993 | 0.506
SK-LU-1 | 0.418
NCI-H838 | 0.333
LCLC-103H | 0.847
NCI-H520 | 0.186
NCI-H2126 | 0.744
EMC-BAC-2 | 0.634
NCI-H2085 | 0.491
Calu-6 | 0.167
HCC-366 | 0.099
NCI-H1666 | 0.257
NCI-H596 | 1.08
NCI-H2087 | 0.145
IA-LM | 0.102
HCC-44 | 0.213
NCI-H1299 | 0.438
NCI-H1792 | 0.635
NCI-H1563 | 0.403
ABC-1 | 0.213

Same assay, conditions: first compound 4 µM

Cell Line | relative viability
NCI-H727 | 0.359
NCI-H1650 | 0.197
EBC-1 | 0.195
NCI-H1703 | 0.102
NCI-H1993 | 0.517
SK-LU-1 | 0.304
NCI-H838 | 0.254
LCLC-103H | 0.252
NCI-H520 | 0.208
NCI-H2126 | 0.425
EMC-BAC-2 | 0.217
NCI-H2085 | 0.386
Calu-6 | 0.124
HCC-366 | 0.0336
NCI-H1666 | 0.169
NCI-H596 | 0.629
NCI-H2087 | 0.151
IA-LM | 0.121
HCC-44 | 0.179
NCI-H1299 | 0.193
NCI-H1792 | 0.321
NCI-H1563 | 0.38
ABC-1 | 0.218

The cell lines below were run with O=C(Nc1cc(C(F)(F)F)cc(C(F)(F)F)c1)c1cc(Cl)ccc1O [IMD-0354] + Cc1nc(Nc2ncc(C(=O)Nc3c(C)cccc3Cl)s2)cc(N2CCN(CCO)CC2)n1 [Dasatinib] (partner 0.075 µM) in the same assay as above. Conditions: first compound 0.04 µM.
In short: as §1

Cell Line | relative viability
NCI-H522 | 0.845
NCI-H1623 | 0.551
NCI-H727 | 0.325
NCI-H1650 | 0.368
NCI-H1993 | 0.562
SK-LU-1 | 0.173
NCI-H838 | 0.239
LCLC-103H | 0.42
NCI-H520 | 0.21
NCI-H2126 | 0.587
EMC-BAC-2 | 0.313
NCI-H2085 | 0.219
HCC-366 | 0.681
NCI-H1666 | 0.94
NCI-H596 | 0.728
